Test results as given in patent publication US20190030036A1, “PHOSPHODIESTERASE INHIBITOR TREATMENT” (Cyrano Therapeutics, Inc., priority 2013, published 2019).

Assays:
patients with hyposmia [1] = test: Side effects of oral theophylline (Example 1); assay type: in vivo, human; details: oral theophylline 200-800 mg daily in divided doses in middle of meals
Source text: Patients were required to take the drug in divided doses in middle of meals (breakfast and lunch).

patients with hyposmia [2] = test: Subjective taste and smell response, intranasal theophylline pilot study (Example 7); details: intranasal theophylline 20 μg per naris once a day, four weeks; six of first eight patients
Source text: These patients were previously treated with oral theophylline or were switched from oral theophylline to intranasal theophylline at the start of the study. Selection for inclusion in the intranasal study was based upon several criteria. 1) non-response to oral theophylline; 2) severe side effects with oral theophylline that prevented reaching a dose of sufficient strength to restore smell function; and/or 3) preference for intranasal medication over oral medication.
Subjective responses to treatment were obtained independent of any interaction with the clinical staff by using a scale of 0-100 to measure response of taste function and smell function to treatment with 0 indicating no response, 100 indicating return to normal function and intermediate numbers indicating an intermediate response.
The patients inserted a plastic syringe containing 0.4 ml of fluid (20 μg theophylline) into each naris once a day. […] The drug dose was delivered through a plastic nipple which fitted snugly onto the filled syringe which was attached directly to the nipple. One nipple was supplied for each set of two syringes in each application kit. The patient fitted the nipple on one syringe, placed the nipple securely into the lower naris and injected the contents of the syringe directly into the lower vault of one naris accompanied by a modest inhalation. […]

[3] = Plasma theophylline level, intranasal theophylline pilot study (Example 7); assay type: in vivo, human; details: intranasal theophylline 20 μg per naris once a day; eight patients
Source text: Blood was obtained by venipuncture to collect plasma and red blood cells used to measure trace metals (Cu, Zn, Mg), various enzymes, theophylline and other chemical moieties.

asthmatic patients = test: sGaw after inhaled dry powder in asthmatic patients (Examples 5, 6)
Method: (§1) To test this theory, asthmatic patients are enrolled in a dose escalating single blind study. On arrival to the clinic, subjects are allowed to rest for 20 minutes before baseline measurements of FEV1 (six recordings) and sGaw (five recordings) are made. Subjects receive a dry powder dispenser loaded with a dose of 2 mg theophylline or a dry powder carrier. […] After each inhalation, measurements of sGaw are made at 1, 3, 5, 10, 15, 20, 25, and 30 minutes.
On completion of the last recording, subjects inhale a 200 μg dose of salbutamol from a metered inhaler and a further measurement of sGaw is made after 15 minutes. Subjects are also monitored for coughing and are questioned about the taste of the drug.
as §1, with “Asthmatic patients” for “To test this theory, asthmatic patients”, “of 1” for “of 2”, “mg IBMX formulated as a dry powder” for “mg theophylline”
On completion of the last recording, subjects inhale a 200 μg dose of salbutamol from a metered inhaler and a further measurement of sGaw made after 15 minutes. Subjects are also be monitored for coughing and are questioned about the taste of the drug.

patients with hyposmia [4] = test: Subjective overall change in smell function; open trial of oral theophylline; assay type: in vivo, human
Method: Independently, patients were also required to grade their ability to smell daily on a scale from 0-100, with 0 reflecting no overall smell function over a 24 hour period, 100 reflecting normal overall smell function over this period and numbers from 0-100 reflecting their estimation of their overall ability to smell odors over this period.
After determination of hyposmia, patients were treated in an open label, fixed design, controlled open trial. Patients were given an oral extended release theophylline in divided daily doses taken in the middle of breakfast and lunch. All patients were initially given 200 mg of theophylline; changes in this dose were made based upon subjective responses to therapy. If at a subsequent return visit, patients reported ≥5% subjective improvement in overall smell function, they continued on this same dose of theophylline and were reevaluated after four to six months of continued treatment. Results from any subsequent return from these improved patients were not included in any subsequent data report. All subsequent comparisons between treated and untreated patients were made only between those patients continuing in the study compared to their own measurements obtained in the untreated state. If patients reported <5% subjective improvement, their theophylline dose was increased by 200 mg daily and they were scheduled for retesting at the study site after two to four months at this new dosage. For patients that reported <5% improvement, this sequence continued until patients reached 800 mg of theophylline, at which time the study was considered completed.
Patients returned for reevaluation after two to four months of treatment. Measurements of blood serum theophylline were measured by a fluorescence polarization assay (Abbott, Chicago, Ill.). At this time, subjective changes in smell function were measured independently (compared to patient's memory of previous normal smell function monitored by use of the patients' daily measurements) using the scale from −100−0-+100 previously described. After independently recording their subjective responses, smell function was measured for all four odors with DT, RT, ME and H determined without recourse to prior measurements.
Subjective overall changes in smell acuity were reported by telephone and by FAX or email at two—four month intervals after treatment was initiated using the standardized form in which they measured daily changes in smell acuity using the −100−0-+100 scale as noted above. Using the same criteria noted above, if at their initial two—four month call-in they reported improvement in smell acuity of ≥5%, they continued at 200 mg and returned to the study site at four—six months on this treatment dose. If they reported improvement in smell acuity of <5% their dose of theophylline was increased to 400 mg for an additional two—four months and they then called the study site at the end of this period.

[5] = inhaled dry powder 2 mg theophylline

Cn1c(=O)c2[nH]cnc2n(C)c1=O [theophylline]
Side effects (patients with hyposmia [1]): generally minimal
patients with subjective improvement in smell function (patients with hyposmia [2]): 75%
plasma theophylline levels [3]: zero
sGaw above the baseline measurement (asthmatic patients; after 30 minutes, inhaled dry powder 2 mg theophylline): 20%
taste and coughing (asthmatic patients; dry powder formulation of theophylline vs nebulized liquid): without the unpleasant taste or the induction of coughing
increase in sGaw relative to 200 μg inhaled salbutamol (asthmatic patients; [5]): comparable
time until sGaw baseline is reached (asthmatic patients; [5]): 1 h
patients improved ≥5% (subjective smell function) (patients with hyposmia [4]; oral theophylline 200 mg daily, two-six months, 199 returning patients): 17.1%
improved patients who considered their smell function had returned to normal (patients with hyposmia [4]; oral theophylline 200 mg daily, of 34 improved patients): 26.5%
non-returning patients reporting >5% improvement (patients with hyposmia [4]; oral theophylline 200 mg, 15 non-returning patients): 46.7%
improved non-returning patients reporting a return to normal (patients with hyposmia [4]; oral theophylline 200 mg, non-returning patients): 14.3%
patients improved ≥5% (subjective smell function) (patients with hyposmia [4]; oral theophylline 400 mg daily, two-six months, 120 patients): 29.2%
improved patients who considered their smell function had returned to normal (patients with hyposmia [4]; oral theophylline 400 mg daily, of 35 improved patients): 8.6%
patients improved ≥5% (subjective smell function) (patients with hyposmia [4]; oral theophylline 600 mg daily, two-12 months, 160 patients): 41.2%
patients who considered their smell function had returned to normal (patients with hyposmia [4]; oral theophylline 600 mg daily, 17 patients): 10.6%
patients improved ≥5% (subjective smell function) (patients with hyposmia [4]; oral theophylline 800 mg daily, two-12 months, 28 patients): 53.6%
patients who considered their smell function had returned to normal (patients with hyposmia [4]; oral theophylline 800 mg daily, three patients): 33%
improved patients reporting smell function returned to normal (patients with hyposmia [4]; oral theophylline 200-600 mg, Type III hyposmia): 60%
patients reporting >5% improvement (patients with hyposmia [4]; oral theophylline 200-600 mg, eight patients with Type III hyposmia): 62.5%
patients reporting >5% improvement (patients with hyposmia [4]; oral theophylline 200-800 mg, 96 patients with Type I hyposmia): 33.3%
patients reporting >5% improvement (patients with hyposmia [4]; oral theophylline 200-800 mg, 208 patients with Type II hyposmia): 62%
improved patients reporting smell function returned to normal (patients with hyposmia [4]; oral theophylline 200-800 mg, Type I hyposmia): 15.6%
improved patients reporting smell function returned to normal (patients with hyposmia [4]; oral theophylline 200-800 mg, Type II hyposmia): 20.2%
responsive patients who considered smell function returned to normal levels (patients with hyposmia [4]; oral theophylline, 34 of 157): 21.7%
patients subjectively responsive to treatment (patients with hyposmia [4]; oral theophylline, 157 of the 312 patients): 50.3%
all patients in the study who considered smell function returned to normal (patients with hyposmia [4]; oral theophylline, all 312 patients): 10.9%
